According to the NIST ThermoML archive (doi:10.1021/je034177v):

Key:
[1] = 101 kPa, Liquid; for speed of sound: Pulse-echo method; for mass density: Vibrating tube method
[2] = molar heat capacity at constant pressure; settings: 101 kPa, Liquid, Small sample (50 mg) DSC
[3] = xn = mol fraction of the nth substance listed; settings: 101 kPa, Liquid, x2 = 0; for speed of sound: Pulse-echo method; for mass density: Vibrating tube method
[4] = molar heat capacity at constant pressure; xn = mol fraction of the nth substance listed; settings: 101 kPa, Liquid, Small sample (50 mg) DSC, x2 = 0

ClCCCCCCCl [1,6-dichlorohexane]
Settings | mass density, [1] [kg/m3] | molar heat capacity at constant pressure, [2] [J/K/mol] | speed of sound, [1] [m/s]
278.15 K | 1082.7 | – | 1387.4
283.15 K | 1077.97 | 236.59 | 1370
288.15 K | 1073.22 | 237.9 | 1352.3
293.15 K | 1068.47 | 239.26 | 1334.8
298.15 K | 1063.74 | 240.6 | 1317.3
303.15 K | 1059 | 241.94 | 1299.9
308.15 K | 1054.25 | 243.37 | 1282.7
313.15 K | 1049.5 | 244.81 | 1265.7
318.15 K | 1044.78 | 246.28 | 1248.7
323.15 K | 1040.03 | 247.76 | 1231.8
328.15 K | 1035.37 | – | 1215.1

CCCCCCCCCCCC [dodecane] + ClCCCCCCCl
Settings | mass density, [3] [kg/m3] | molar heat capacity at constant pressure, [4] [J/K/mol] | speed of sound, [3] [m/s]
278.15 K | 759.56 | – | 1357
283.15 K | 755.96 | 368.47 | 1337.4
288.15 K | 752.36 | 370.48 | 1317.6
293.15 K | 748.74 | 372.74 | 1298
298.15 K | 745.14 | 375.04 | 1278.5
303.15 K | 741.52 | 377.43 | 1259.2
308.15 K | 737.88 | 380.02 | 1240
313.15 K | 734.24 | 382.73 | 1221
318.15 K | 730.6 | 385.48 | 1202.3
323.15 K | 726.95 | 388.29 | 1183.6
328.15 K | 723.29 | – | 1165.1

CCCCCCCCCCCC [dodecane]
Settings | mass density, [1] [kg/m3] | molar heat capacity at constant pressure, [2] [J/K/mol] | speed of sound, [1] [m/s]
278.15 K | 759.56 | – | 1357
283.15 K | 755.96 | 368.47 | 1337.4
288.15 K | 752.36 | 370.48 | 1317.6
293.15 K | 748.74 | 372.74 | 1298
298.15 K | 745.14 | 375.04 | 1278.5
303.15 K | 741.52 | 377.43 | 1259.2
308.15 K | 737.88 | 380.02 | 1240
313.15 K | 734.24 | 382.73 | 1221
318.15 K | 730.6 | 385.48 | 1202.3
323.15 K | 726.95 | 388.29 | 1183.6
328.15 K | 723.29 | – | 1165.1

CCCCCCCCCCCC [dodecane] + ClCCCCCCl
Settings | mass density, [3] [kg/m3] | molar heat capacity at constant pressure, [4] [J/K/mol] | speed of sound, [3] [m/s]
278.15 K | 759.56 | – | 1357
283.15 K | 755.96 | 368.47 | 1337.4
288.15 K | 752.36 | 370.48 | 1317.6
293.15 K | 748.74 | 372.74 | 1298
298.15 K | 745.14 | 375.04 | 1278.5
303.15 K | 741.52 | 377.43 | 1259.2
308.15 K | 737.88 | 380.02 | 1240
313.15 K | 734.24 | 382.73 | 1221
318.15 K | 730.6 | 385.48 | 1202.3
323.15 K | 726.95 | 388.29 | 1183.6
328.15 K | 723.29 | – | 1165.1

ClCCCCCCl [1,5-dichloropentane]
Settings | mass density, [1] [kg/m3] | molar heat capacity at constant pressure, [2] [J/K/mol] | speed of sound, [1] [m/s]
278.15 K | 1115.28 | – | 1376.6
283.15 K | 1110.26 | 209.65 | 1358.9
288.15 K | 1105.2 | 210.73 | 1341
293.15 K | 1100.16 | 211.89 | 1323.2
298.15 K | 1095.11 | 212.94 | 1305.4
303.15 K | 1090.07 | 214.06 | 1287.9
308.15 K | 1085.02 | 215.21 | 1270.3
313.15 K | 1079.97 | 216.38 | 1253
318.15 K | 1074.95 | 217.56 | 1235.8
323.15 K | 1069.89 | 218.76 | 1218.7
328.15 K | 1064.93 | – | 1201.6
